Measurements as given in patent publication US20170332627A1, “AGROCHEMICAL RESINATES FOR AGRICULTURAL APPLICATIONS” (priority 2014, published 2017).
Blank lines part the entries; values can stand above or below the compound they belong to.

Assays:
[1] = Soil test (potting soil/sand, tap water) for release profile; format: physicochemical
Description: To further explore behavior of the IER-AAI complex in conditions found in the soil, a soil test was developed to mimic in-vivo conditions by mixing potting soil with sand, based on the understanding that most soil in the field is not of the same quality as premium potting soil, but instead typically contains more clay or sand. The samples run through the soil test were WG01, WG02, WG05-WG10.
In this experiment, potting soil was mixed with sand in a 19:31 ratio. Then the desired amount of IER-AAI complex (the amount of resin that would allow the total AAI to be 25 mg) was mixed homogenously in with the soil. The Buchner funnel was fitted with filter paper and the filter paper was wet with a little bit of tap water. The Buchner funnel was then placed in an Erlenmeyer flask with a side arm fitted with a rubber adaptor. The side arm was hooked up to a vacuum and the vacuum turned on. Next, the sand/soil/IER-AAI mixture was poured into the Buchner funnel. 10 mL of tap water was poured evenly over the sand/soil/IER-AAI mixture and flooding was observed. Once the water drained into the Erlenmeyer flask, the Buchner funnel was removed and the water transferred into a glass vial. The Buchner funnel was replaced back on the Erlenmeyer flask, the vacuum turned back on, and another 10 mL of tap water was poured evenly over the sand/soil/IER-AAI mixture. This process was repeated until 10×10 mL fractions were collected. Each fraction was then analyzed for UV absorbance at 200-400 nm using a ThermoScientific model Evolution 201, diluting samples when necessary. Comparing the absorbance values against a calibration curve, the amount of AAI in each fraction was calculated.
The percent loading and release profile for each AAI was obtained based on the protocols described in Examples 14 and 15 respectively, except that the AAI content was held constant at 20 mg instead of 25 mg.

[2] = Sand column test, release of chloramben with DI water then 2M NaOH; format: physicochemical; conditions: for release profile in sand column (FIG. 1): result in words
Description: To assess the extended release properties of our WDG and HSC formulations (prepared in accordance with Example 7) we employed a sand column method as described below, where the results of the sand column test can be extrapolated to represent in vivo soil conditions.
Sand column tests were run first with water and then with a 2M NaOH ionic solution. […] The rest of the sand column tests were then run with 2M NaOH; we selected the hydroxyl ion as a representative anion to illustrate the release of the AAI through ion exchange.
First, the sand to be used in the sand column was weighed out into a centrifuge tube. Then the sand was wetted with DI water until flowable and vortexed to mix. Next, the sand was introduced into a Lab-Crest Buret fitted with a Stopcock. DI water was then passed through the sand column to remove any sand that had stuck to the side of the buret. Excess water was drained, until the water level was just at the top of the sand. In a separate small centrifuge tube, the sand was mixed with the experimental sample, and this mixture was added to the top of the sand column. Chloramben control and samples formulated as WG01, WG02, and HSC01 (as described above) were tested.
For each Sample, the experiment was conducted as follows. […] 7×10 mL fractions were collected from the column in appropriately sized culture tubes at 10 mL fractions. The stopcock was closed as the water level reached the top of the sand. […] 7×10 mL fractions were collected in appropriately sized culture tubes. Each fraction was then analyzed for UV absorbance at 200-400 nm using a ThermoScientific model Evolution 201, diluting samples when necessary. Comparing the absorbance values against a calibration curve, the amount of AAI in each fraction was calculated.
The results of these experiments are shown in the graph in FIG. 1.
Fractions 1-7 were run with deionized water flushing through the column, while fractions 8-14 were run with 2 M NaOH flushing through the column. The arrow indicates where the changeover from DI water to NaOH occurred. […] Only when there was a counterion present for exchange (i.e. OH^− in the NaOH), did the chloramben in the test samples start to release more quickly.

[3] = imidacloprid, 20 mg total AAI, FIG. 8
[4] = dicamba, 20 mg total AAI, FIG. 6
[5] = chloramben, 25 mg total AAI, 10x10 mL tap water, FIG. 4
[6] = control, no eluent named in head
[7] = whole run, DI water then 2M NaOH, same value under both heads
[8] = nicosulfuron, 20 mg total AAI, FIG. 7
[9] = benzoic acid, 25 mg total AAI, 10x10 mL tap water, FIG. 2
[10] = benzoic acid, 25 mg total AAI, 10x10 mL tap water, FIG. 3
[11] = benzoic acid, 25 mg total AAI, HSC comparison, FIG. 5
[12] = gibberellic acid, 20 mg total AAI, FIG. 9

Structure (SMILES): O=[N+]([O-])NC1=NCCN1Cc1ccc(Cl)nc1 [ICD Control, Imidacloprid]
Percent Release [1, 3]: 98% | Total AAI Released [1, 3]: 20 mg

Percent Release [1, 4]: 100% | Total AAI Released [1, 4]: 20 mg
Structure (SMILES): COc1c(Cl)ccc(Cl)c1C(=O)O [Dicamba Control, Dicamba]

Structure (SMILES): Nc1cc(Cl)cc(C(=O)O)c1Cl [Chloramben Control, Chloramben]
Percent Release [1, 5]: 71% | Total AAI Released [1, 5]: 18 mg | % chloramben released in first two fractions [2, 6]: 44% | Total mg chloramben released [2, 6]: 20.92 mg | release profile in sand column (FIG. 1) [2]: released more quickly | release profile in sand column (FIG. 1) ([2]; listed as control chloramben powder): released very quickly | % chloramben remaining [2, 7]: 30% | % total chloramben released [2, 7]: 70%

Structure (SMILES): COc1cc(OC)nc(NC(=O)NS(=O)(=O)c2ncccc2C(=O)N(C)C)n1 [NSN Control, Nicosulfuron]
Percent Release [1, 8]: 52% | Total AAI Released [1, 8]: 10 mg

Structure (SMILES): O=C(O)c1ccccc1 [Benzoic Acid Control, Benzoic acid]
Percent Released [1, 9]: 97% | Total AAI Released [1, 9]: 24 mg | Percent Release [1, 10]: 97% | Total AAI Released [1, 10]: 24 mg | Percent Release [1, 11]: 97% | Total AAI Released [1, 11]: 24 mg

Percent Release [1, 12]: 99% | Total AAI Released [1, 12]: 20 mg
Structure (SMILES): C=C1C[C@]23C[C@@]1(O)CC[C@H]2[C@@]12C=C[C@H](O)[C@@](C)(C(=O)O1)[C@H]2[C@@H]3C(=O)O [GA Control, Gibberellic Acid]
